{
  "source": "patent US20170368082A1",
  "about": "“FORMULATIONS OF BRINCIDOFOVIR” (priority 2016, published 2017)",
  "experiment": "Phase 2 toxicokinetics of brincidofovir and cidofovir in plasma",
  "format": "in vivo, Sprague-Dawley CD rats",
  "design": "Imputed Concentration, Mean: unit: ng/mL",
  "settings": "plasma; for C (Concentration), individual animals: 15 mg/kg; for Imputed Concentration, individual animals / Imputed Concentration, Mean: BLQ imputed as zero",
  "experimental": "Plasma samples (108) were collected 2 hours following the initiation of dosing on Day 1 and Day 7 (Group 1), or at 1, 2, 8, and 24 hours following the initiation of dosing on Day 1, and prior to administration and at 2, 8, and 24 hours following the initiation of dosing on Day 7 (Groups 2 and 3), and analyzed to determine the concentrations of brincidofovir and the metabolite, cidofovir), by LC/MS/MS.\nApproximately 0.4 mL of whole blood was obtained via the tail vein from each animal at each time point. Animals were not fasted prior to blood collection. Blood was collected into tubes containing K2EDTA anticoagulant and placed on wet ice in an upright position, per facility SOP prior to processing. Plasma was separated by centrifugation (10 minutes at approximately 2000 g, at approximately 2-8° C.). Approximately 0.10 mL of plasma was transferred into a single cryotube appropriately labeled with study number, animal number, time point, date of sampling and sample type. Remaining plasma was transferred into a second cryotube and retained as a backup sample. Plasma frozen at approximately −80±10° C. within approximately 2 hours after collection of each blood sample until analysis. Animals were euthanized (CO2 inhalation) after the final blood collection.\nIn general, TK parameters were estimated using mean plasma concentrations of brincidofovir and cidofovir derived from the composite blood sampling design using Phoenix WinNonLin (V 6.3).\nA composite blood sampling design was used such that each rat was sampled twice per sampling day. Blood was collected via tail vein from unanesthetized animals into tubes containing anticoagulant and placed on wet ice in an upright position. Animals were not fasted prior to blood collection. Plasma was separated by centrifugation (for 10 minutes at approximately 2000 g, at approximately 2-8° C.), and transferred into individually labeled cryotubes. All cryotubes containing the collected plasma samples were appropriately labeled as to study number, animal number, time point, date of sampling and sample type. All plasma samples were obtained and frozen at approximately −80° C. (±10° C.) within approximately 2 hours after collection of each blood sample until analysis.\nRat plasma bioanalysis was conducted by Pyxant Laboratories. Plasma samples were analyzed for concentrations of brincidofovir and cidofovir using a method based upon protein precipitation extraction followed by LC-MS/MS analysis; calibration ranges for brincidofovir and cidofovir were 1.00-1500 ng/mL and 5.00-750 ng/mL, respectively, (Pyxant study number 3025) for a 50 μL aliquot of rat plasma. Sample analysis for ISR was not performed as part of this non-GLP study.\nFor the generation of Mean Profiles, all sample concentrations that were below the limit of quantitation (BLQ) were set to 0.\nAll pharmacokinetic parameter estimates were completed using a Non-Compartmental Model (Model 200-202 for IV infusion administration). The AUClast and AUCinf were calculated using the linear up log down trapezoidal rule.",
  "key": {"[1]": {"settings": "brincidofovir 1 mg/kg 2-h IV infusion, female rats, Day 7, 0 h"}, "[2]": {"settings": "brincidofovir 1 mg/kg 2-h IV infusion, female rats, Day 7, 24 h"}, "[3]": {"settings": "brincidofovir 1 mg/kg 2-h IV infusion, male rats, Day 7, 8 h"}, "[4]": {"settings": "brincidofovir 1 mg/kg 2-h IV infusion, male rats, Day 7, 24 h"}, "[5]": {"settings": "brincidofovir 15 mg/kg 2-h IV infusion, female rats, Day 7, 0 h"}, "[6]": {"settings": "brincidofovir 15 mg/kg 2-h IV infusion, male rats, Day 7, 0 h"}},
  "note": "Values joined by “and” are separate entries in the source; they are usually repeats but may differ in a detail not shown here. Equal values may be shown once.",
  "data": [
    {"compound": "CCCCCCCCCCCCCCCCOCCCOP(=O)(O)CO[C@H](CO)Cn1ccc(N)nc1=O", "note": "[Brincidofovir]", "values": [
      {"measurement": "C (Concentration), individual animals", "setting": "female rats, Day 7, 24 h, listed as BCV", "value": "BLQ"},
      {"measurement": "C (Concentration), individual animals", "setting": "male rats, Day 7, 0 h", "value": "BLQ"},
      {"measurement": "Imputed Concentration, individual animals", "setting": "brincidofovir 1 mg/kg 2-h IV infusion, female rats, Day 1, 1 h, listed as BCV", "value": "126 ng/mL and 177 ng/mL"},
      {"measurement": "Imputed Concentration, individual animals", "setting": "brincidofovir 1 mg/kg 2-h IV infusion, female rats, Day 1, 2 h, listed as BCV", "value": "164 ng/mL and 155 ng/mL"},
      {"measurement": "Imputed Concentration, individual animals", "setting": "brincidofovir 1 mg/kg 2-h IV infusion, female rats, Day 1, 8 h, listed as BCV", "value": "2.30 ng/mL and 1.45 ng/mL and 0.00 ng/mL"},
      {"measurement": "Imputed Concentration, individual animals", "setting": "brincidofovir 1 mg/kg 2-h IV infusion, female rats, Day 1, 24 h", "value": 0.00, "unit": "ng/mL"},
      {"measurement": "Imputed Concentration, Mean", "setting": "[1]", "value": 0.00, "unit": "ng/mL"},
      {"measurement": "Imputed Concentration, individual animals", "setting": "[1]", "value": 0.00, "unit": "ng/mL"},
      {"measurement": "Imputed Concentration, Mean", "setting": "brincidofovir 1 mg/kg 2-h IV infusion, female rats, Day 7, 2 h", "value": 95.4, "unit": "ng/mL"},
      {"measurement": "Imputed Concentration, individual animals", "setting": "brincidofovir 1 mg/kg 2-h IV infusion, female rats, Day 7, 2 h, listed as BCV", "value": "115 ng/mL and 82.1 ng/mL and 89.2 ng/mL"},
      {"measurement": "Imputed Concentration, Mean", "setting": "brincidofovir 1 mg/kg 2-h IV infusion, female rats, Day 7, 8 h", "value": 2.19, "unit": "ng/mL"},
      {"measurement": "Imputed Concentration, individual animals", "setting": "brincidofovir 1 mg/kg 2-h IV infusion, female rats, Day 7, 8 h, listed as BCV", "value": "6.58 ng/mL and 0.00 ng/mL (2×)"},
      {"measurement": "Imputed Concentration, Mean", "setting": "[2]", "value": 0.00, "unit": "ng/mL"},
      {"measurement": "Imputed Concentration, individual animals", "setting": "[2]", "value": 0.00, "unit": "ng/mL"},
      {"measurement": "Imputed Concentration, individual animals", "setting": "brincidofovir 1 mg/kg 2-h IV infusion, male rats, Day 1, 1 h, listed as BCV", "value": "244 ng/mL and 280 ng/mL"},
      {"measurement": "Imputed Concentration, individual animals", "setting": "brincidofovir 1 mg/kg 2-h IV infusion, male rats, Day 1, 2 h, listed as BCV", "value": "283 ng/mL and 203 ng/mL"},
      {"measurement": "Imputed Concentration, individual animals", "setting": "brincidofovir 1 mg/kg 2-h IV infusion, male rats, Day 1, 8 h", "value": 0.00, "unit": "ng/mL"},
      {"measurement": "Imputed Concentration, individual animals", "setting": "brincidofovir 1 mg/kg 2-h IV infusion, male rats, Day 1, 24 h", "value": 0.00, "unit": "ng/mL"},
      {"measurement": "Imputed Concentration, individual animals", "setting": "brincidofovir 1 mg/kg 2-h IV infusion, male rats, Day 7, 0 h", "value": 0.00, "unit": "ng/mL"},
      {"measurement": "Imputed Concentration, Mean", "setting": "brincidofovir 1 mg/kg 2-h IV infusion, male rats, Day 7, 2 h", "value": 208, "unit": "ng/mL"},
      {"measurement": "Imputed Concentration, individual animals", "setting": "brincidofovir 1 mg/kg 2-h IV infusion, male rats, Day 7, 2 h, listed as BCV", "value": "255 ng/mL and 189 ng/mL and 179 ng/mL"},
      {"measurement": "Imputed Concentration, Mean", "setting": "[3]", "value": 0.00, "unit": "ng/mL"},
      {"measurement": "Imputed Concentration, individual animals", "setting": "[3]", "value": 0.00, "unit": "ng/mL"},
      {"measurement": "Imputed Concentration, Mean", "setting": "[4]", "value": 0.00, "unit": "ng/mL"},
      {"measurement": "Imputed Concentration, individual animals", "setting": "[4]", "value": 0.00, "unit": "ng/mL"},
      {"measurement": "Imputed Concentration, Mean", "setting": "brincidofovir 15 mg/kg 2-h IV infusion, female rats, Day 1, 1 h", "value": 3470},
      {"measurement": "Imputed Concentration, individual animals", "setting": "brincidofovir 15 mg/kg 2-h IV infusion, female rats, Day 1, 1 h, listed as BCV", "value": "3030 and 3930 and 3450"},
      {"measurement": "Imputed Concentration, Mean", "setting": "brincidofovir 15 mg/kg 2-h IV infusion, female rats, Day 1, 2 h", "value": 2570},
      {"measurement": "Imputed Concentration, individual animals", "setting": "brincidofovir 15 mg/kg 2-h IV infusion, female rats, Day 1, 2 h, listed as BCV", "value": "2460 and 1860 and 3380"},
      {"measurement": "Imputed Concentration, Mean", "setting": "brincidofovir 15 mg/kg 2-h IV infusion, female rats, Day 1, 8 h", "value": 6.53},
      {"measurement": "Imputed Concentration, individual animals", "setting": "brincidofovir 15 mg/kg 2-h IV infusion, female rats, Day 1, 8 h, listed as BCV", "value": "5.05 and 7.97 and 6.57"},
      {"measurement": "Imputed Concentration, Mean", "setting": "brincidofovir 15 mg/kg 2-h IV infusion, female rats, Day 1, 24 h", "value": 2.02},
      {"measurement": "Imputed Concentration, individual animals", "setting": "brincidofovir 15 mg/kg 2-h IV infusion, female rats, Day 1, 24 h, listed as BCV", "value": "2.32 and 1.25 and 2.48"},
      {"measurement": "Imputed Concentration, Mean", "setting": "[5]", "value": 0.00},
      {"measurement": "Imputed Concentration, individual animals", "setting": "[5]", "value": 0.00},
      {"measurement": "Imputed Concentration, Mean", "setting": "brincidofovir 15 mg/kg 2-h IV infusion, female rats, Day 7, 2 h", "value": 1660},
      {"measurement": "Imputed Concentration, individual animals", "setting": "brincidofovir 15 mg/kg 2-h IV infusion, female rats, Day 7, 2 h, listed as BCV", "value": "2220 and 995 and 1750"},
      {"measurement": "Imputed Concentration, individual animals", "setting": "brincidofovir 15 mg/kg 2-h IV infusion, female rats, Day 7, 8 h, listed as BCV", "value": "5.32 and 6.27 and 4.75"},
      {"measurement": "Imputed Concentration, Mean", "setting": "brincidofovir 15 mg/kg 2-h IV infusion, male rats, Day 1, 1 h", "value": 4370},
      {"measurement": "Imputed Concentration, individual animals", "setting": "brincidofovir 15 mg/kg 2-h IV infusion, male rats, Day 1, 1 h, listed as BCV", "value": "4020 and 4030 and 5060"},
      {"measurement": "Imputed Concentration, Mean", "setting": "brincidofovir 15 mg/kg 2-h IV infusion, male rats, Day 1, 2 h", "value": 2840},
      {"measurement": "Imputed Concentration, individual animals", "setting": "brincidofovir 15 mg/kg 2-h IV infusion, male rats, Day 1, 2 h, listed as BCV", "value": "2510 and 2990 and 3010"},
      {"measurement": "Imputed Concentration, Mean", "setting": "brincidofovir 15 mg/kg 2-h IV infusion, male rats, Day 1, 8 h", "value": 9.59},
      {"measurement": "Imputed Concentration, individual animals", "setting": "brincidofovir 15 mg/kg 2-h IV infusion, male rats, Day 1, 8 h, listed as BCV", "value": "10.7 and 8.23 and 9.85"},
      {"measurement": "Imputed Concentration, Mean", "setting": "brincidofovir 15 mg/kg 2-h IV infusion, male rats, Day 1, 24 h", "value": 1.22},
      {"measurement": "Imputed Concentration, individual animals", "setting": "brincidofovir 15 mg/kg 2-h IV infusion, male rats, Day 1, 24 h, listed as BCV", "value": "1.20 and 1.10 and 1.36"},
      {"measurement": "Imputed Concentration, Mean", "setting": "[6]", "value": 0.00},
      {"measurement": "Imputed Concentration, individual animals", "setting": "[6]", "value": 0.00},
      {"measurement": "Imputed Concentration, Mean", "setting": "brincidofovir 15 mg/kg 2-h IV infusion, male rats, Day 7, 2 h", "value": 1910},
      {"measurement": "Imputed Concentration, individual animals", "setting": "brincidofovir 15 mg/kg 2-h IV infusion, male rats, Day 7, 2 h, listed as BCV", "value": "1640 and 1940 and 2150"},
      {"measurement": "Imputed Concentration, individual animals", "setting": "brincidofovir 15 mg/kg 2-h IV infusion, male rats, Day 7, 8 h, listed as BCV", "value": "9.82 and 7.60 and 8.73"}
    ]}
  ]
}
